Reference: ChEMBL document CHEMBL1157442, “Discovery of new binding elements in DPP-4 inhibition and their applications in novel DPP-4 inhibitor design” (Bioorg Med Chem Lett, 2008)

What was measured:
Dipeptidyl peptidase 8 = Dipeptidyl peptidase 8 (Homo sapiens, UniProt Q6V1X1); assay: Inhibition of DPP8
[1] = Oral bioavailability in rat at 2 mg/kg; assay type: ADME, organism-based; details: in vivo
[2] = Clearance in rat plasma at 1 mg/kg, iv and 2 mg/kg, po; assay type: ADME, organism-based
[3] = Cmax in rat 1 mg/kg, iv and 2 mg/kg, po; assay type: ADME, organism-based; details: in vivo
[4] = Half life in rat plasma 1 mg/kg, iv and 2 mg/kg, po; assay type: ADME, organism-based
Dipeptidyl peptidase 4 = Dipeptidyl peptidase 4 (Homo sapiens, UniProt P27487); assay: Inhibition of DPP4
Chain of Dipeptidyl peptidase 4 (P27487 whole entry): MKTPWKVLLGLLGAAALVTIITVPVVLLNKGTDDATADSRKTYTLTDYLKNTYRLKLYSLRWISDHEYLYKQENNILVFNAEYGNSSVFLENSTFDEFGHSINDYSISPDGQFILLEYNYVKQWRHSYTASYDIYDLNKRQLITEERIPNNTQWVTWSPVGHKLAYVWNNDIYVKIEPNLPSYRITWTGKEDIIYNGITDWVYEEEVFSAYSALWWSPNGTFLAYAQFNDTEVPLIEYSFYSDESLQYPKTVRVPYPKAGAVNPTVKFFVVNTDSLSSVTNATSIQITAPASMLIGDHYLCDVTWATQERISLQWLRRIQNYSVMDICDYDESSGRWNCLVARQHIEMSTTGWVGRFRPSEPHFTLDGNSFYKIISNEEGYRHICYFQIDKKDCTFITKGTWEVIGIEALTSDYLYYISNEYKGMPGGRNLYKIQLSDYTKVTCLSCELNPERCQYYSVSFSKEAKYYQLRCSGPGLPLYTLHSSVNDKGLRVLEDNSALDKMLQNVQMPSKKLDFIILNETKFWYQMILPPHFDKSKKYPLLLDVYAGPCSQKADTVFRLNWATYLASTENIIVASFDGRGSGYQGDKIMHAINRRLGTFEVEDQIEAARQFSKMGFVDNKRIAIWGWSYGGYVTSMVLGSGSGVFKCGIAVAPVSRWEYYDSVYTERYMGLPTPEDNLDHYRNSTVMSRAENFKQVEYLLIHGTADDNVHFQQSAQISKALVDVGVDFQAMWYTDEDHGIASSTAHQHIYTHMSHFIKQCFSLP

Chain of Dipeptidyl peptidase 8 (Q6V1X1 whole entry): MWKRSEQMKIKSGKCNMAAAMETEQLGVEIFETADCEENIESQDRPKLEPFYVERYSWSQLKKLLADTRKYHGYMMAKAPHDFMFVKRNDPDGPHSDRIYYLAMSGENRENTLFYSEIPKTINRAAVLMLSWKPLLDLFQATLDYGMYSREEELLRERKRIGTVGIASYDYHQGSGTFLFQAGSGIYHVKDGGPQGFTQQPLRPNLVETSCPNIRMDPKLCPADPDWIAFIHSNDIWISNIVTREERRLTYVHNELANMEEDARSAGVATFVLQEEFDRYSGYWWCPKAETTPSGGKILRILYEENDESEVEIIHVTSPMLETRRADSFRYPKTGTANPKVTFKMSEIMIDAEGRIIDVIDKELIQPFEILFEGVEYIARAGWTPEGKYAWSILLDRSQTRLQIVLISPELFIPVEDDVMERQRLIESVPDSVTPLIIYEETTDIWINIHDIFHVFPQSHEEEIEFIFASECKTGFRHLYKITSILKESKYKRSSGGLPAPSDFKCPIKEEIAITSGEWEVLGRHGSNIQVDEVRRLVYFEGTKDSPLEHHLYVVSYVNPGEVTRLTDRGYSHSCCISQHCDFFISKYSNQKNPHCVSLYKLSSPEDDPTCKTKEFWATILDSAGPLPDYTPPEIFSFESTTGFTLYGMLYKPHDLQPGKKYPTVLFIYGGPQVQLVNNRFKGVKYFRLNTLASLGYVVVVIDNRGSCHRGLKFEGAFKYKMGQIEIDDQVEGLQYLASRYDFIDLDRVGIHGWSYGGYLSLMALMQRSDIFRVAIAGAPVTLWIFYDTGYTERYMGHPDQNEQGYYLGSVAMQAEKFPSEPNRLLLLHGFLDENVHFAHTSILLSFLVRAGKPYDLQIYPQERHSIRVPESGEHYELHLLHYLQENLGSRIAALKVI

| Structure (SMILES) | IC50 (Dipeptidyl peptidase 8) [µM] | IC50 (Dipeptidyl peptidase 4) [µM] | other results |
| --- | --- | --- | --- |
| C[C@H](c1nc(-c2ccc(OC(F)(F)F)cc2)no1)[C@H](N)C(=O)N1CCCC1 | > 100 | – | – |
| NC(=O)c1cccc(-c2ccc([C@H](N)Cc3cc(F)ccc3F)cc2)c1 | > 100 | – | bioavailability [1]: 130%; clearance [2]: 13 mL/min/kg; Cmax [3]: 2100 nM; half-life [4]: 3.8 h |
| C[C@@H]1C(=O)NCCCN1C(=O)C[C@H](N)Cc1ccccc1F | – | 0.04 | – |
| N[C@H](Cc1cc(F)ccc1F)c1ccc(-c2ccncc2Cl)cc1 | > 100 | 0.107 | – |
| C[C@H](c1nc(-c2ccc(Cl)cc2Cl)no1)[C@H](N)C(=O)N1CC[C@H](F)C1 | > 100 | 0.615 | – |
| C[C@H](c1nc(-c2ccc(S(C)(=O)=O)cc2Cl)no1)[C@H](N)C(=O)N1CC[C@H](F)C1 | > 100 | – | – |
| N[C@H](Cc1cc(F)ccc1F)c1ccc(Br)cc1 | > 100 | – | – |
| Cc1noc(C(=O)C[C@H](N)Cc2cc(F)ccc2F)n1 | > 100 | – | – |
| C[C@@H](c1ccc(-c2ccncc2Cl)cc1)[C@H](N)C(=O)N1CC[C@H](F)C1 | > 100 | 0.071 | – |
| C[C@@H](c1nc(-c2ccc(Cl)cc2Cl)no1)[C@H](N)Cc1cc(F)c(F)cc1F | > 100 | 0.6 | – |
| C[C@@H](c1nc(-c2ccc(OC(F)(F)F)cc2)no1)[C@H](N)Cc1cc(F)ccc1F | > 100 | 4.4 | – |
| C[C@@H](c1nc(-c2ccc(S(C)(=O)=O)cc2Cl)no1)[C@H](N)Cc1cc(F)c(F)cc1F | > 100 | 0.046 | – |
| N[C@@H](CC(=O)N1CCC[C@H]1CO)C(=O)N1CC[C@H](F)C1 | – | 9.2 | – |
